Assay results published in PubChem BioAssay AID1963863 (Molecular Pharmacology Branch, DTP, NCI, 2024).

System: 931267-113-T-J1-PDC KRAS spheroid with HUVEC/MSC, viability
Test: Anticancer human tumor 931267-113-T-J1-PDC patient-derived colon adenocarcinoma cell line growth inhibition [KRAS2]
Conditions: for IC50: curve of first compound; for viability, T/C: stronger effect = lower value; active = viability on the fitted dose curve at most 10% of control; inactive = the rest
Text: Multicellular complex tumor spheroid response to RAS pathway inhibitors in combination with a targeted agents in patient-derived cell lines with oncogenic KRAS variants from multiple cancer types
A high-throughput screen of multi-cell type tumor spheroids was designed to identify active combinations of targeted small molecules and KRAS pathway inhibitors. Complex spheroids include a stromal component modeled by human endothelial cells (HUVEC) and fibroblasts modeled by human mesenchymal stem cells (MSCs). The concentration ranges selected for each drug and investigational agent were based upon clinically achievable concentrations if the clinical Cmax of the agent was known.
Compounds. The drugs and investigational agents: BI-3406 (NSC825286), BAY-293 (NSC824723), batoprotafib (TNO155; NSC825523), sotorasib (AMG 510; NSC818433), MRTX1257 (NSC819558), elimusertib (BAY 1895344; NSC800525), molibresib (GSK525762; NSC774829), temuterkib (LY3214996; NSC803410), venetoclax (NSC766270), alisertib (NSC759677), olaparib (NSC753686), talazoparib (NSC767125), erdafitinib (NSC781556), ipatasertib (NSC767898), cabozantinib (NSC761068), nintedanib (NSC756659), abemaciclib (NSC768073), docetaxel (NSC628503), trametinib (NSC758246), and sapanisertib (NSC764658) were obtained from the National Cancer Institute (NCI) Developmental Therapeutics Program Chemical Repository. The FDA-approved anticancer drug set is available from the Developmental Therapeutics Program. […] The stock solutions were prepared in dimethyl sulfoxide (DMSO, Sigma-Aldrich, St. Louis, MO, cat. D2650) at 800-fold the tested concentration and stored at -70 degrees C prior to their use. All drugs and investigational agents were tested over a range starting from a high concentration at or near the clinical Cmax and decreasing in half-log increments. If the clinical Cmax for an agent had not been determined, the highest concentration tested was 10 microM.
Cell Culture. All cells were maintained in an incubator at 37 degrees C and 5% CO2 with 95% humidity. The PDC lines were cultured according to standard operating procedures established by the NCI PDMR (https://pdmr.cancer.gov/sops/default.htm). Briefly, all PDCs were thawed and cultured in Matrigel-coated flasks prepared with a working solution of 1X Ham's F-12 nutrient mix, without supplementation (Invitrogen, Waltham, MA, cat. 11765054), 100 U/mL penicillin-streptomycin (Invitrogen, cat. 15140122), and 2.5% Matrigel (Corning Inc., Corning, NY, cat. 354248) for the first three passages. All PDCs were cultured in complete DMEM/F-12 media containing advanced DMEM/F-12 (Invitrogen, cat. 12634028), 4.9% defined fetal bovine serum, heat inactivated (HyClone Laboratories Inc., Logan, UT, cat. SH30070.03HI), 389 ng/mL hydrocortisone (Sigma-Aldrich, cat. H4001), 9.7 ng/mL human EGF recombinant protein (Invitrogen, cat. PHG0313), 23.4 microg/mL adenine (Sigma-Aldrich, cat. A2786), 97.3 U/mL penicillin-streptomycin (Invitrogen, cat. 15140122), 1.9 mM L-glutamine (Invitrogen, cat. 25030081), and 9.7 microM Y-27632 dihydrochloride (Tocris Bioscience, Bristol, United Kingdom, cat. 1254). The PDCs were cultured in complete DMEM/F12 media without 9.7 microM Y-27632 dihydrochloride for at least two passages prior to the screen. The established cell line HOP-62 was cultured in RPMI 1640 medium, HEPES (Invitrogen, cat. 22400105) with 10% defined fetal bovine serum (HyClone Laboratories Inc., cat. SH30070.03) and 2 mM L-glutamine (Invitrogen, cat. 25030081). The pooled donor HUVEC were cultured in endothelial cell growth medium 2 (PromoCell, Heidelberg, Germany, cat. C-22011) and the hMSC were cultured in mesenchymal stem cell growth medium 2 (PromoCell, cat. C-28009). For all experiments, HUVEC and hMSC were used at passages </=5, while the malignant cell lines were used at passages </=15. […]
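Also: compound exposure lasted 7 days before the readout.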

CC1(C)CCC(CN2CCN(c3ccc(C(=O)NS(=O)(=O)c4ccc(NCC5CCOCC5)c([N+](=O)[O-])c4)c(Oc4cnc5[nH]ccc5c4)c3)CC2)=C(c2ccc(Cl)cc2)C1 + C=CC(=O)N1CCN(c2nc(=O)n(-c3c(C)ccnc3C(C)C)c3nc(-c4c(O)cccc4F)c(F)cc23)C(C)C1
2120 nM: IC50 (second compound 3.16 µM)
1820 nM: IC50 (second compound 0.316 µM)
inactive: viability, T/C (second compound 0.1 µM, first compound 0.0316 µM) 107% | viability, T/C (second compound 0.1 µM, first compound 0.1 µM) 85% | viability, T/C (second compound 0.1 µM, first compound 0.316 µM) 84.2% | viability, T/C (second compound 0.1 µM, first compound 1 µM) 103% | viability, T/C (second compound 0.1 µM, first compound 3.16 µM) 30.8% | viability, T/C (second compound 0.316 µM, first compound 0.0316 µM) 86.8% | viability, T/C (second compound 0.316 µM, first compound 0.1 µM) 102% | viability, T/C (second compound 0.316 µM, first compound 0.316 µM) 96.8% | viability, T/C (second compound 0.316 µM, first compound 1 µM) 71.6% | viability, T/C (second compound 0.316 µM, first compound 3.16 µM) 29.5% | viability, T/C (second compound 0.316 µM, first compound 10 µM) 10.2% | viability, T/C (second compound 1 µM, first compound 0.0316 µM) 86.5% | viability, T/C (second compound 1 µM, first compound 0.1 µM) 104% | viability, T/C (second compound 1 µM, first compound 0.316 µM) 79.9% | viability, T/C (second compound 1 µM, first compound 1 µM) 91.7% | viability, T/C (second compound 1 µM, first compound 3.16 µM) 22.5% | viability, T/C (second compound 3.16 µM, first compound 0.0316 µM) 76.4% | viability, T/C (second compound 3.16 µM, first compound 0.1 µM) 98% | viability, T/C (second compound 3.16 µM, first compound 0.316 µM) 109% | viability, T/C (second compound 3.16 µM, first compound 1 µM) 99% | viability, T/C (second compound 3.16 µM, first compound 3.16 µM) 25.7% | viability, T/C (second compound 10 µM, first compound 0.0316 µM) 98.5% | viability, T/C (second compound 10 µM, first compound 0.1 µM) 75.2% | viability, T/C (second compound 10 µM, first compound 0.316 µM) 83.1% | viability, T/C (second compound 10 µM, first compound 1 µM) 76.5% | viability, T/C (second compound 10 µM, first compound 3.16 µM) 23.1%
active: viability, T/C (second compound 0.1 µM, first compound 10 µM) 5.11% | viability, T/C (second compound 1 µM, first compound 10 µM) 2.37% | viability, T/C (second compound 3.16 µM, first compound 10 µM) 8.95% | viability, T/C (second compound 10 µM, first compound 10 µM) 3.34%
1990 nM: IC50 (second compound 1 µM)
2240 nM: IC50 (second compound 0.1 µM)
1770 nM: IC50 (second compound 10 µM)
